One experiment addresses T1, ERK5 (Homo sapiens, UniProt Q13164).
T1 construct: MEF2-luciferase reporter
Nature of the experiment: Inhibition of Cellular ERK5 Activity (cell-based assay, MEF2 luciferase reporter in SN12C cells). The note with it: renal cancer cell line SN12C, doxycycline-induced MEKSDD, mean where repeated. The protocol:
(§1) Two assays were performed to assess the ERK5 inhibitory activity of compounds of the Examples, a cell-based assay and a cell-free biochemical assay. Where repeat measurements were taken, the value reported is a mean average.
The renal cancer cell line SN12C was transduced by a lentivirus pGreenFire1 MEF2 EF1 Neo (ref TR030VA-N) from SBI using standard infection protocol. pGreenFire1 MEF2 EF1 Neo allows the expression of luciferase gene under the control of minimal promoter with MEF2 transcriptional response elements. Cells harboring the reporter construct were selected by geneticin treatment. The selected cells were then transposed by a piggyback based plasmid pCM4007 allowing the expression of constitutively activated MEKSDD under control of TREG3 promoter, a doxycycline regulated promoter. Transposed cells were selected by puromycin treatment. Upon doxycycline treatment (1p g/ml) MEKSDD was expressed. MEKSDD activates ERK5 that phosphorylates MEF2C protein. Activated MEF2C protein can bind to its transcriptional response elements. Then the luciferase is expressed. In a 96-well plate (96F nuncleon refl37101 thermofisher), 50,000 cells were inoculated in 142.5 μl of RPMI medium containing 10% fetal calf serum, 1% glutamine, and 1 μg/ml doxycycline. After 24 hours, compounds were added in 7.5 μl culture medium (with 2% DMSO to give a final concentration of 0.1%) in order to obtain the desired concentration (0.3-1000 nM). The luciferase activity was measured using the Kit Bright Glo Luminescent Cell Assay Cat E2610 (Promega) according to the manufacturer's protocol. Luminescence was determined using 0.2 second reading/well using a Tecan SPARK. IC50 values were calculated using XLFIT5 for Microsoft Excel using method 205. The IC50 values represent the concentration of compound which inhibits the measurable luminescence signal by 50% as compared to DMSO-treated control cells.
A general note: A reporter such as luciferase makes a cellular process visible.

The target of experiment [1] is T2, ERK5 (activated catalytic domain) (Homo sapiens, UniProt Q13164).
T2 construct: purchased CarnaBiosciences 04-146
T2 sequence (Q13164 55-347 limits assumed): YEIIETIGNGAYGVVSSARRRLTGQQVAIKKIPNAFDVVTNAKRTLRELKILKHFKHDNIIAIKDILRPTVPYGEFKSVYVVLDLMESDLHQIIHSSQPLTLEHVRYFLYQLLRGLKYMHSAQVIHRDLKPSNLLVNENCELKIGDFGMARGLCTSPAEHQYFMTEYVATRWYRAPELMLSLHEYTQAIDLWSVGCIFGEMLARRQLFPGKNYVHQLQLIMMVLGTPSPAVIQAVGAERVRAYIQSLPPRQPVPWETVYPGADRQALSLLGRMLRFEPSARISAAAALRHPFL
Nature of the experiment: Cell-Free Assay of ERK5 Inhibition (Time-Resolved FRET, 4EBP1 peptide phosphorylation). The class given is biochemical. The conditions noted are these: ERK5 catalytic domain 4 nM, 1 mM ATP, 1 μM biotinylated 4EBP1 peptide, 30 min at 37° C.; mean where repeated; read-out: Cell-free assay (IC50 in nM). The protocol:
as §1
An assay was performed to measure the capacity of each compound to inhibit ERK5 enzymatic activity. Compound potency was evaluated by Time-Resolved Forster Resonance Energy Transfer (FRET system). The activated catalytic domain of protein ERK5 (CarnaBiosciences #04-146) was mixed at 4 nM with varying concentrations of compound and incubated for 30 minutes at room temperature. A mixture of 1 mM ATP and 1 μM biotinylated synthetic peptide was added (Biosyntan GmbH). This synthetic peptide represents amino acids 30-52 of Eukaryotic translation initiation factor 4E-binding protein 1 (see, e.g., the sequence under accession No. NP_004086.1) biotinylated at the N-terminus. After 30 minutes at 37° C., the peptide phosphorylation by ERK5 was measured by addition of FRET reagents consisting of 12.5 μg/ml Streptavidin-XL665, 1 nM Anti-P-4EBP1 antibody and 300 ng/ml Anti-rabbit-K antibody. Following 90 minutes at room temperature fluorescent signals were read on the Pherastar FSX multimod detector from BMG Labtech (Exc° 340 nm, Em1 620 nm, Em2 665 nm). The IC50 values represent the concentration of compound which inhibits the measurable fluorescence signal by 50% as compared to the DMSO only control.

Broadly, the IC50 is the midpoint of a concentration-inhibition curve.

T1 sequence (Q13164 whole entry): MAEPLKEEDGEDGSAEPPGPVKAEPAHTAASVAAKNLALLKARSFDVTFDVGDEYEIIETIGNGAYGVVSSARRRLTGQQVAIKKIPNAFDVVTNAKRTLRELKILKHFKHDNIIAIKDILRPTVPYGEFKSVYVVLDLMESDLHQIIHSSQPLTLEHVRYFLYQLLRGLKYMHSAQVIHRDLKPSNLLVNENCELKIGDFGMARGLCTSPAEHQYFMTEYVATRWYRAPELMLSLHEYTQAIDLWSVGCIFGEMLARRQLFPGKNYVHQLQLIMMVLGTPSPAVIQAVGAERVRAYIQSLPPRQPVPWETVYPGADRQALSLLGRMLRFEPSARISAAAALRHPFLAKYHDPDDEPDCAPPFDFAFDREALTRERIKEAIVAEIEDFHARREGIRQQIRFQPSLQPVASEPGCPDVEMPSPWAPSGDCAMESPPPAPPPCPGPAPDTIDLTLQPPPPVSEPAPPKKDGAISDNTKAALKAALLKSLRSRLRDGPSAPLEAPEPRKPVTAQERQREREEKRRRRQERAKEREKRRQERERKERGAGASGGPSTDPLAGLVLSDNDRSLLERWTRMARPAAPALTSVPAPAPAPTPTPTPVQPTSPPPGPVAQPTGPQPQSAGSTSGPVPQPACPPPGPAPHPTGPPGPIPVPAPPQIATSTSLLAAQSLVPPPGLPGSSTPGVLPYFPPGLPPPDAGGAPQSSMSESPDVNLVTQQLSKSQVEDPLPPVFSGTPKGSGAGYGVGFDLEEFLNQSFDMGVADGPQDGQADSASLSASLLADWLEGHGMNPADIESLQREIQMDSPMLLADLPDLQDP

`O=C(c1ccc(S(F)(F)(F)(F)F)cc1)N1CCC(n2c(=O)[nH]c3ncc(C4CCOCC4)cc32)C1` (racemic) [Example 50, (rac)-1-[1-[4-(pentafluoro-λ^6-sulfanyl)benzoyl]pyrrolidin-3-yl]-6-tetrahydropyran-4-yl-3H-imidazo[4,5-b]pyridin-2-one]: the IC50 against ERK5 was found to be 361 nM; in experiment [1], 1620 nM.
In the same order, the values of `Nc1cc(OC(F)(F)F)ccc1C(=O)N1CCC(n2c(=O)[nH]c3ncc(OC4CCOC4)cc32)CC1` (racemic) [Example 55, (rac)-1-[1-[2-amino-4-(trifluoromethoxy)benzoyl]-4-piperidyl]-6-[tetrahydrofuran-3-yl]oxy-3H-imidazo[4,5-b]pyridin-2-one] are 83 nM and 87 nM.
In the same order, the values of `O=C(c1ccc(OC(F)(F)F)cc1)N1CCC(n2c(=O)[nH]c3ncc(OC4CCOC4)cc32)CC1` (racemic) [Example 56, (rac)-6-tetrahydrofuran-3-yloxy-1-[1-[4-(trifluoromethoxy)benzoyl]-4-piperidyl]-3H-imidazo[4,5-b]pyridin-2-one] are 96 nM and 430 nM.
As to `Nc1cc(OC(F)(F)F)ccc1C(=O)N1CCC(n2c(=O)[nH]c3ncc(OC4CCOC4)cc32)CC1` (single isomer, unassigned; isomer 1) [Example 43, 1-[1-[2-amino-4-(trifluoromethoxy)benzoyl]-4-piperidyl]-6-[tetrahydrofuran-3-yl]oxy-3H-imidazo[4,5-b]pyridin-2-one, Isomer 1], the IC50 was found to be 74 nM at ERK5 and 150 nM in experiment [1].
With `CN1CCC(Oc2cnc3[nH]c(=O)n(C4CCN(C(=O)c5ccc(OC(F)(F)F)cc5N)CC4)c3c2)C1` (single isomer, unassigned; isomer 1) [Example 47, 1-[1-[2-amino-4-(trifluoromethoxy)benzoyl]-4-piperidyl]-6-[1-methylpyrrolidin-3-yl]oxy-3H-imidazo[4,5-b]pyridin-2-one, Isomer 1], the IC50 on ERK5 was found to be 273 nM; in experiment [1], 239 nM.
The matching figures for `Nc1cc(OC(F)(F)F)ccc1C(=O)N1CCC(n2c(=O)[nH]c3ncc(OC4CCOC4)cc32)CC1` (single isomer, unassigned; isomer 2) [Example 44, 1-[1-[2-amino-4-(trifluoromethoxy)benzoyl]-4-piperidyl]-6-[tetrahydrofuran-3-yl]oxy-3H-imidazo[4,5-b]pyridin-2-one, Isomer 2]: 169 nM and 310 nM.
The matching figures for `CN1CCC(Oc2cnc3[nH]c(=O)n(C4CCN(C(=O)c5ccc(OC(F)(F)F)cc5N)CC4)c3c2)C1` (single isomer, unassigned; isomer 2) [Example 48, 1-[1-[2-amino-4-(trifluoromethoxy)benzoyl]-4-piperidyl]-6-[1-methylpyrrolidin-3-yl]oxy-3H-imidazo[4,5-b]pyridin-2-one, Isomer 2]: 117 nM and 78 nM.
In the same order, the values of `Nc1cc(OC(F)(F)F)ccc1C(=O)N1CCC(n2c(=O)[nH]c3ncc(OC4CCOCC4)cc32)CC1` [Example 1, 1-[1-[2-amino-4-(trifluoromethoxy)benzoyl]-4-piperidyl]-6-tetrahydropyran-4-yloxy-3H-imidazo[4,5-b]pyridin-2-one] are 48 nM and 29 nM.
`Nc1cc(OC(F)(F)F)ccc1C(=O)N1CCC(n2c(=O)[nH]c3ncc(C4CCOCC4)cc32)CC1` [Example 2, 1-[1-[2-amino-4-(trifluoromethoxy)benzoyl]-4-piperidyl]-6-tetrahydropyran-4-yl-3H-imidazo[4,5-b]pyridin-2-one]: the values for the IC50 (against ERK5; in experiment [1]) were 68 nM and 48 nM, respectively.
In the same order, the values of `Nc1cc(OC(F)(F)F)ccc1C(=O)N1CCC(n2c(=O)[nH]c3ncc(N4CCOCC4)cc32)CC1` [Example 3, 1-[1-[2-amino-4-(trifluoromethoxy)benzoyl]-4-piperidyl]-6-N-morpholino-3H-imidazo[4,5-b]pyridin-2-one] are 72 nM and 77 nM.
The matching figures for `O=C(c1ccc(OC(F)(F)F)cc1)N1CCC(n2c(=O)[nH]c3ncc(OC4CCOCC4)cc32)CC1` [Example 4, 6-tetrahydropyran-4-yloxy-1-[1-[4-(trifluoromethoxy)benzoyl]-4-piperidyl]-3H-imidazo[4,5-b]pyridin-2-one]: 132 nM and 135 nM.
The matching figures for `CN1CCC(Oc2cnc3[nH]c(=O)n(C4CCN(C(=O)c5ccc(OC(F)(F)F)cc5)CC4)c3c2)CC1` [Example 5, 6-[(1-methyl-4-piperidyl)oxy]-1-[1-[4-(trifluoromethoxy)benzoyl]-4-piperidyl]-3H-imidazo[4,5-b]pyridin-2-one]: 206 nM and 150 nM.
For `CN1CCC(Oc2cnc3[nH]c(=O)n(C4CCN(C(=O)c5ccc(OC(F)(F)F)cc5N)CC4)c3c2)CC1` [Example 7, 1-[1-[2-amino-4-(trifluoromethoxy)benzoyl]-4-piperidyl]-6-[(1-methyl-4-piperidyl)oxy]-3H-imidazo[4,5-b]pyridin-2-one], the IC50 turned out to be 248 nM against ERK5 and 63 nM in experiment [1].
Turning to `O=C(c1ccc(OC(F)(F)F)cc1)N1CCC(n2c(=O)[nH]c3ncc(N4CCOCC4)cc32)CC1` [Example 8, 6-N-morpholino-1-[1-[4-(trifluoromethoxy)benzoyl]-4-piperidyl]-3H-imidazo[4,5-b]pyridin-2-one], the IC50 worked out at 279 nM against ERK5 and 505 nM in experiment [1].
The matching figures for `Nc1cc(OC(F)(F)F)ccc1C(=O)N1CCC(n2c(=O)[nH]c3ncc(N4CCO[C@H](CO)C4)cc32)CC1` [Example 10, 1-[1-[2-amino-4-(trifluoromethoxy)benzoyl]-4-piperidyl]-6-[(2S)-2-(hydroxymethyl)morpholin-4-yl]-3H-imidazo[4,5-b]pyridin-2-one]: 870 nM and 103 nM.
In the same order, the values of `O=C(c1ccc(OC(F)(F)F)cc1)N1CCC(n2c(=O)[nH]c3ncc(N4CCO[C@@H](CO)C4)cc32)CC1` [Example 11, 6-[(2R)-2-(hydroxymethyl)morpholin-4-yl]-1-[1-[4-(trifluoromethoxy)benzoyl]-4-piperidyl]-3H-imidazo[4,5-b]pyridin-2-one] are 1830 nM and 1050 nM.
The matching figures for `O=C(c1ccc(OC(F)(F)F)cc1)N1CCC(n2c(=O)[nH]c3ncc(N4CCO[C@H](CO)C4)cc32)CC1` [Example 12, 6-[(2S)-2-(Hydroxymethyl)morpholin-4-yl]-1-[1-[4-(trifluoromethoxy)benzoyl]-4-piperidyl]-3H-imidazo[4,5-b]pyridin-2-one]: 1860 nM and 442 nM.
Regarding `Nc1cc(OC(F)(F)F)ccc1C(=O)N1CCC(n2c(=O)[nH]c3ncc(N4CCO[C@@H](CO)C4)cc32)CC1` [Example 13, 1-[1-[2-Amino-4-(trifluoromethoxy)benzoyl]-4-piperidyl]-6-[(2R)-2-(hydroxymethyl)morpholin-4-yl]-3H-imidazo[4,5-b]pyridin-2-one], the half-maximal inhibitory concentration (IC50) at ERK5 turned out to be 1330 nM; in experiment [1] it was 225 nM.
Turning to `Nc1cc(S(F)(F)(F)(F)F)ccc1C(=O)N1CCC(n2c(=O)[nH]c3ncc(C4CCOCC4)cc32)CC1` [Example 14, 1-[1-[2-Amino-4-(pentafluoro-λ^6-sulfanyl)benzoyl]-4-piperidyl]-6-tetrahydropyran-4-yl-3H-imidazo[4,5-b]pyridin-2-one], the values for the IC50 (against ERK5; in experiment [1]) were 118 nM and 122 nM, respectively.
In the same order, the values of `O=C(c1ccc(OC(F)(F)F)cc1)N1CCC(n2c(=O)[nH]c3ncc(C4CCCC4)cc32)CC1` [Example 17, 6-Cyclopentyl-1-[1-[4-(trifluoromethoxy)benzoyl]-4-piperidyl]-3H-imidazo[4,5-b]pyridin-2-one] are 178 nM and 198 nM.

These data come from patent US20260297087A1, “Pyridoimidazolone Compounds, Preparation Thereof and Therapeutic Uses Thereof” (Sanofi, priority 2023, published 2026).
